Laboratory results taken from patent US11590129B2, “Combination therapy with an antitumor alkaloid” (PHARMA MAR, S.A., priority 2010, dated 2023).
Read-outs that look alike come from different tables or passages of the source.

What was measured:
[1] = test system: JURKAT human leukemia cell line; assay: cells; conditions: Homo sapiens, Jurkat, 72 h
Method: (§1) Additional serial dilutions were prepared in serum-free culture medium to achieve a final 4× concentration. Aliquots of 50 μL of each diluted compound were added per well.
(§2) JURKAT and MOLT-4 were the human leukemia cell lines selected for this assay, which were obtained from the American Type Culture Collection (ATCC).
(§3) Briefly, cells were seeded in 96 well microtiter plates at a density of 50000 cells per well in 150 μL of culture medium and incubated for 4-6 hours in drug-free medium before treatment with vehicle alone or test compounds for 72 hours.
(§4) After incubation, the cytotoxic effect was evaluated using a MTT reduction assay. 50 μL of MTT solution (1 mg/mL) were added to the wells and incubated for 15-17 hours at 37° C. until formazan crystals were formed. After gently removing the culture medium, DMSO was added to dissolve the insoluble purple formazan product into a colored solution. […] Results were expressed as percentage of control cell growth. The EC50 values (half-maximal effective concentration) used for the combination studies were calculated using Prism v5.02 software (GraphPad). EC50 was expressed as molar concentration and represented the mean of at least three independent assays.
(§5) b. In a second set of experiments, concentration-response curves for the agents tested, both alone and in two-drug combination, were performed, using the same methodology described in the previous paragraph.
(§6) Using these starting concentrations, constant serial dilutions were performed to generate the concentration-response curves for each set of drugs, alone and in combination.
(§7) Based on this equation, the term “combination index” (CI) is used as a quantitative measure of the degree of drug interactions. […] CI values were calculated by solving the equation for different values of fa (i.e., for different degrees of cell groth inhibition).
(§8) Data were analyzed using CalcuSyn software (Biosoft, Cambridge, UK). For statistical analysis and graphs Prism software (GraphPad, San Diego, USA) was used. All the results represent the mean of at least three independent experiments.

[2] = test system: PANC-1 human pancreatic carcinoma cell line; assay: cells; conditions: Homo sapiens, PANC-1, 72 h
Method: (§9) a. […] Briefly, cells were harvested and seeded in 96 well microtiter plates at a density of 5,000 cells in 150 μL of culture medium and incubated for 24 hours in drug-free medium before treatment with vehicle alone or test compounds for 72 h.
(§10) The cytotoxic effect was measured by the MTT reduction assay, in which 3-(4,5-Dimethylthiazol-2-yl)-2,5-diphenyltetrazolium bromide, a tetrazole, which is reduced to purple formazan in the mitochondria of living cells, was used. MTT (50 μL of 1 mg/mL stock solution) was added to the wells and incubated for 8 hours at 37° C. until formazan crystals were formed. After gently removing the culture medium, DMSO was added to dissolve the insoluble purple formazan product into a colored solution. […] Results were expressed as percentage of control cell growth.
(§11) b. In a second set of assays, A549 human tumor cells were incubated with PM01183 in combination with each of the agents mentioned above.
(§12) As a visual aid, response values were plotted on a scatter plot with dose ratios given on the x-axis and % response values on the y-axis. […] In cases where response values at the two endpoints were approximately equivalent, points lying above or below this predicted line of additivity could be interpreted as representing antagonistic or synergistic drug interaction, respectively.
as §1
PANC-1 was the human pancreatic carcinoma cell line selected for this assay.

[3] = test system: RXF-393 human kidney carcinoma cell line; assay: cells; conditions: Homo sapiens, RXF 393, 72 h
[4] = test system: MDA-MB-231 human breast adenocarcinoma cell line; assay: cells; conditions: Homo sapiens, MDA-MB-231, 72 h
[5] = test system: A673 human rhabdomyosarcoma cell line; assay: cells; conditions: Homo sapiens, A673, 72 h
Summary of the method: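 A673 cells seeded at 5,000 per well, grown 24 h drug-free, then exposed to compounds for 72 h. Viability by MTT reduction (8 h, 37 °C), formazan dissolved in DMSO. Results expressed as percentage of control cell growth.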

[6] = test system: A549 human lung carcinoma cell line; assay: MTT cytotoxicity assay in A549 cells: IC50 of single agents and combinations with PM01183; assay type: cell-based; conditions: Homo sapiens; A549, 72 hours drug exposure, MTT; read-out: IC50
Summary of the method: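 A549 cells seeded at 5,000 per well, grown 24 h drug-free, then exposed to vehicle or compounds for 72 h, either singly or combined with PM01183. Combination responses plotted against dose ratio relative to an additivity line.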

[7] = test system: HepG2 human hepatocellular liver carcinoma cell line; assay: MTT cytotoxicity assay in HepG2 cells: IC50 of single agents and combinations with PM01183; assay type: cell-based; conditions: Homo sapiens
[8] = test system: PC-3 human prostate cancer cell line; assay: cells; conditions: Homo sapiens, PC-3, 72 h
Summary of the method: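 Cells seeded at 5,000/well, grown 24 h drug-free, then exposed to vehicle or test compounds for 72 h. Viability by MTT reduction (8 h, 37 °C), formazan dissolved in DMSO. Values given as percentage of control cell growth.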

[9] = test system: U87-MG human glioblastoma cell line; assay: cells; conditions: Homo sapiens, U-87 MG, 72 h
[10] = test system: HT-29 human colon adenocarcinoma cell line; assay: cells; conditions: Homo sapiens, HT-29, 72 h
Summary of the method: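 HT-29 cells (5,000/well) were attached for 24 h, then exposed to vehicle or compounds for 72 h. Viability was read by MTT reduction, with 8 h MTT at 37° C and formazan dissolved in DMSO. Values are % of control cell growth.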

[11] = test system: RAMOS human lymphoma cell line; assay: cells; conditions: Homo sapiens, Ramos, 72 h
Method: as §3, §4, §6, §7, §8, §1
(§13) In the second set of assays, concentration-response curves for the agents tested, both alone and in two-drug combination, were performed.

[12] = test system: U-937 human lymphoma cell line; assay: cells; conditions: Homo sapiens, U-937, 72 h
Method: as §3, §4, §6, §7, §8, §1, §13

[13] = test system: HGC-27 human gastric carcinoma cell line; assay: cells; conditions: Homo sapiens, HGC-27, 72 h
[14] = test system: IGROV-1 human ovarian adenocarcinoma cell line; assay: cells; conditions: Homo sapiens, IGROV-1, 72 h
[15] = test system: SK-MEL-2 human melanoma cell line; assay: cells; conditions: Homo sapiens, SK-MEL-2, 72 h
Method: as §9, §10, §11, §12, §1
SK-MEL-2 was the human melanoma cell line selected for this assay.

SW1990 tumors = assay: Human pancreatic tumor xenografts (SW1990) in athymic nude mice, tumor volume % T/C; assay type: in vivo
Method: Female athymic nude mice (Harlan Laboratories Models, S.L. (Barcelona, Spain) were utilized for all experiments. Animals were housed in individually ventilated cages, up to ten per cage in a 12-hour light-dark cycle at 21-23° C. and 40-60% humidity. The mice were allowed free access to irradiated standard rodent diet and sterilized water. Animals were acclimated for at least 5 days prior to tumor implantation with a tumor cell suspension.
Each animal was subcutaneously implanted on the right flank, using 26G needle and a 1 cc syringe, with 5×10^6 SW1990 cells, from in vitro passage 12, in 0.05 mL suspension of 50% Matrigel and 50% serum free medium, without antibiotics.
PM01183 was provided in the form of vials of lyophilized PM01183 cake which was reconstituted with water for infusion to a concentration of 0.2 mg/mL. The PM01183 stock solution was further diluted in 5% glucose solution for injection to the dosing formulation concentrations.
Dose level groups were administered either as single agents or in combination.
Comparison of the median tumor volume in the treatment groups (T) to the median tumor volume in the control group (T/C×100%) was used for evaluation of the antitumor efficacy.

[16] = test system: MOLT-4 human leukemia cell line; assay: cells; conditions: Homo sapiens, MOLT-4, 72 h
Method: as §1, §2, §3, §4, §5, §6, §7, §8

[17] = HepG2, 72 hours drug exposure, MTT, read-out: IC50
[18] = gemcitabine 45.0 mg/kg iv days 0,7,14
[19] = gemcitabine 90.0 mg/kg iv days 0,7,14
[20] = gemcitabine 135.0 mg/kg iv days 0,7,14
[21] = gemcitabine 180.0 mg/kg iv days 0,7,14

COc1cccc2c1C(=O)c1c(O)c3c(c(O)c1C2=O)C[C@@](O)(C(C)=O)C[C@@H]3O[C@H]1C[C@H](N)[C@H](O)[C@H](C)O1 [Daunorubicin, daunorubicin]
EC50 [1]: 792 nM | IC50 [2]: 869 nM | IC50 [3]: 620 nM | IC50 [4]: 370 nM | IC50 [5]: 520 nM | IC50 [6]: 355 nM | IC50 [7, 17]: 300 nM | IC50 [8]: 1150 nM | IC50 [9]: 284 nM | IC50 [10]: 532 nM | EC50 [11]: 315 nM | EC50 [12]: 304 nM | IC50 [13]: 372 nM | IC50 [14]: 355 nM | IC50 [15]: 0.177 µM

Nc1ccn([C@@H]2O[C@H](CO)[C@@H](O)C2(F)F)c(=O)n1 [Gemcitabine, gemcitabine]
IC50 [2]: 1000 nM | IC50 [3]: 500 nM | IC50 [4]: 8.5 nM | IC50 [5]: 0.434 nM | IC50 [6]: 0.28 nM | IC50 [7, 17]: 5.34 nM | IC50 [8]: 400 nM | IC50 [9]: 450 nM | IC50 [10]: 400 nM | EC50 [11]: 25.1 nM | EC50 [12]: 32.7 nM | IC50 [13]: 0.534 nM | % T/C on day 0 (SW1990 tumors; [18]): 102.3% | % T/C on day 3 (SW1990 tumors; [18]): 85.5% | % T/C on day 6 (SW1990 tumors; [18]): 70.3% | % T/C on day 8 (SW1990 tumors; [18]): 70.5% | % T/C on day 10 (SW1990 tumors; [18]): 63.3% | % T/C on day 13 (SW1990 tumors; [18]): 64.8% | % T/C on day 15 (SW1990 tumors; [18]): 63.1% | % T/C on day 17 (SW1990 tumors; [18]): 58.5% | % T/C on day 20 (SW1990 tumors; [18]): 58.7% | % T/C on day 22 (SW1990 tumors; [18]): 57.3% | % T/C on day 24 (SW1990 tumors; [18]): 65.2% | % T/C on day 28 (SW1990 tumors; [18]): 59.3% | % T/C on day 0 (SW1990 tumors; [19]): 103.8% | % T/C on day 3 (SW1990 tumors; [19]): 70.0% | % T/C on day 6 (SW1990 tumors; [19]): 73.8% | % T/C on day 8 (SW1990 tumors; [19]): 63.3% | % T/C on day 10 (SW1990 tumors; [19]): 55.6% | % T/C on day 13 (SW1990 tumors; [19]): 54.8% | % T/C on day 15 (SW1990 tumors; [19]): 49.9% | % T/C on day 20 (SW1990 tumors; [19]): 47.6% | % T/C on day 22 (SW1990 tumors; [19]): 47.0% | % T/C on day 24 (SW1990 tumors; [19]): 45.9% | % T/C on day 28 (SW1990 tumors; [19]): 49.2% | % T/C on day 0 (SW1990 tumors; [20]): 102.3% | % T/C on day 3 (SW1990 tumors; [20]): 78.3% | % T/C on day 6 (SW1990 tumors; [20]): 71.9% | % T/C on day 8 (SW1990 tumors; [20]): 63.7% | % T/C on day 10 (SW1990 tumors; [20]): 55.4% | % T/C on day 13 (SW1990 tumors; [20]): 52.7% | % T/C on day 15 (SW1990 tumors; [20]): 54.8% | % T/C on day 17 (SW1990 tumors; [20]): 51.2% | % T/C on day 20 (SW1990 tumors; [20]): 49.5% | % T/C on day 22 (SW1990 tumors; [20]): 48.7% | % T/C on day 24 (SW1990 tumors; [20]): 49.8% | % T/C on day 28 (SW1990 tumors; [20]): 49.5% | % T/C on day 0 (SW1990 tumors; [21]): 102.2% | % T/C on day 3 (SW1990 tumors; [21]): 84.1% | % T/C on day 6 (SW1990 tumors; [21]): 73.9% | % T/C on day 8 (SW1990 tumors; [21]): 66.1% | % T/C on day 10 (SW1990 tumors; [21]): 60.9% | % T/C on day 13 (SW1990 tumors; [21]): 59.4% | % T/C on day 15 (SW1990 tumors; [21]): 58.5% | % T/C on day 17 (SW1990 tumors; [21]): 52.1% | % T/C on day 20 (SW1990 tumors; [21]): 49.1% | % T/C on day 22 (SW1990 tumors; [21]): 48.6% | % T/C on day 24 (SW1990 tumors; [21]): 46.9% | % T/C on day 28 (SW1990 tumors; [21]): 39.3% | IC50 [14]: 6.34 nM

CN(Cc1cnc2nc(N)nc(N)c2n1)c1ccc(C(=O)N[C@@H](CCC(=O)O)C(=O)O)cc1 [Methotrexate, methotrexate]
EC50 [1]: 145 nM | EC50 [16]: 43.9 nM | IC50 [2]: 10000 nM | IC50 [3]: 175000 nM | IC50 [4]: 5940 nM | IC50 ([7]; HepG2, 72 h): 39.6 nM | IC50 [8]: 120000 nM | IC50 [9]: 50000 nM | EC50 [11]: 5020 nM | EC50 [12]: 26.3 nM | IC50 [13]: 33 nM | IC50 [14]: 100000 nM | IC50 [15]: 100 µM
